In US6294521A, “Phosphosugars and phosphosugar-containing compounds having anti-inflammatory activity” (Australian National University, priority 1996, dated 2001):

Legend:
[1] = system: mannose-6-phosphate receptor (insulin-like growth factor II or IGF-II receptor); experiment: Competitive binding assay: uptake of fluorescein-labelled polysaccharide (PPME) by U937 monocytes; format: cell-based, human (U937 cell line); details: uptake of fluoresceinated-PPME (100 μg/ml), U937 cells, 60 minutes at 37° C.; FIG. 1
From the text: The novel mannoside 6-phosphates have similar affinities for the mannose-6-phosphate receptor (insulin-like growth factor II or IGF-II receptor) as the natural ligand, mannose-6-phosphate. In order to assess the binding of the novel mannoside 6-phosphates to the M6P receptor a competitive binding assay was used. In this assay a fluorescein-labelled, polysaccharide (PPME) which contains abundant mannose-6-phosphate groups, was used to detect uptake through the M6P receptor on human monocytes (U937 cell line). PPME was isolated and purified by the method of Bretthauer et al., (23) from the exopolysaccharide secreted by the yeast Pichia holstii. […]
The human monocyte cell line U937, which has a relatively high content of M6P receptors on its cell Surface (25), was obtained from the American Type Culture Collection (Rockville, Md.) and was maintained in RPMI 1640 medium (Gibco, Gaitersburg, Md.) supplemented with 2 mg/ml sodium bicarbonate, 0.2 mM glutamine, 30 μg/ml penicillin, 50 μg/ml streptamycin sulfate and 50 μg/ml neomycin sulfate and 10% foetal calf serum (FCS; Commonwealth Sarum Laboratories, Melbourne, Anstalia) at 37° C. […] Following incubations, the cells were washed twice with 10% FCS/RPMI and once with PBS and then fixed with 1% paraformaldehyde in PBS and analysed for fluorescence by flow cytometry. […]

[2] = Inhibition of passively-transferred EAE in rats, parenteral treatment; format: in vivo, Lewis rats; details: for inhibition of development of disease (EAE), in words: 8 hourly subcutaneous doses for seven days, 220 mg/kg/day (mannose-6-phosphate), 200 mg/kg/day (others); for % with clinical signs of EAE: n=5; for % with clinical signs of EAE / Mean Maximum clinical score: 220 mg/kg/day (mannose 6-P) or 200 mg/kg/day (others); for Mean Maximum clinical score: controls 2.8 (saline), 3.3 (PEG 200)
Experimental: International Patent PCT/AU89/00350 identified several simple phosphosugars which had potent anti-inflammatory activity against cell-mediated inflammatory diseases such as EAE. The novel mannose 6-phosphate derivatives of the present invention have improved pharmacodynamic and pharmacokinetic properties. Thus, some of these agents are effective against EAE when they are injected either subcutaneously or intraperitoneally in rats, whereas the parent substance, mannose-6-phosphate is ineffective when administered in this manner.
In this Example, some typical novel mannoside 6-phosphates of the present invention were compared with mannose-6-phosphate for their ability to inhibit the development of […] in rats. In this experiment, according to the method of Panitch and McFarlin (18), donor Lewis rats were immunised with 50 μg myelin basic protein in complete Freund's adjuvant and 10-12 days later the spleens from these rats were removed and made into a single cell suspension. Thus, these cells, 2×10^6 ml^-1, were cultured in RPMI medium with 5% fetal calf serum, 5×10^-5 M 2-mercaptoethanol, 2 mM L-glutamine plus 30 μg/ml penicillin, 50 μg/ml streptamycin sulfate. Con A was added at 2 μg ml^-1 and cultures were incubated at 37° C. in a humidified atmosphere of 5% CO2, 7% O2 and the balance N2. Cells were harvested after 72 hours, washed once wit Hanks balanced salt solution, and 70×10^6 viable cells were then transferred to naive Lewis rat recipients via a lateral tail vein in order to induce EAE.

[3] = Delayed-type hypersensitivity (DTH) footpad swelling, sheep red blood cell antigen; format: in vivo, CBA mice; details: Table 2, q.i.d. s.c., n=5, mean, 220 mg/kg/day (mannose 6-phosphate) or 200 mg/kg/day (others); for inhibition at 220 mg/kg: Mus musculus, Erythrocyte; for % swelling: control = 100
[4] = Contact sensitivity to picryl chloride, ear swelling; format: in vivo, CBA female mice; details: n=5; for inhibition at 330 mg/kg/day: Mus musculus, sc, Table 3, 6 injections s.c.; for % swelling: Table 3, 330 mg/kg/day, 6 injections s.c., control = 100
From the text: Contact sensitivity is a type of delayed hypersensitivity which ours following exposure to sensitising agents including low molecular weight reactive chemical entities such as dinitro chlorobenzene (DNCB) and picryl chloride (19,21) as well as the sensitising agents found in poison ivy and poison oak (19). In sensitised individuals, in those having previously been exposed to the sensitising agent, inflammatory leucocytes migrate from the blood stream into the area immediately beneath the affected tissue producing induration which is a cardinal characteristic of the delayed-type hypersensitivity reaction (21). Thus, contact sensitivity is a well recognised cell-mediated inflammatory response. In the experiment outlined below the novel mannoside 6-phosphates were compared with mannose-6-phosphate for their ability to inhibit contact sensitivity induced by picryl chloride.
In this experiment twenty CBA female mice were sensitised to picqyl chloride after the method of Enander et al., (22) by applying 200 μl of picryl chloride solution (0.5% in 95% ethanol) to an area (approximately 2 cm^2) of their shaved abdomens. Seven days following sensitisation these animals were divided into four groups of five mice which bad been treated with either mannose-6-phosphate (55 mg/kg), methyl mannoside 6-phosphate (330 mg/kg) or decyl mannoside 6-phosphate (55 mg/kg) or saline (control) 30 minutes before they were challenged by applying 100 μl of picryl chloride solution (1% in 95% ethanol) to both sides of their left ears. Their right ears (control) were treated with 100 μl of 95% ethanol. Three and one half hours following challenge a second injection of drug or saline was given and this was repeated four times at 4 hour intervals. Four hours following the last injection the mice were anaesthetised (ether) and the contact sensitivity determined by comparing the thickness of the picryl chloride treated ears with those of the control ears. As shown in Table 3 the novel mannoside phosphates inhibited accumulation of inflammatory cells in challenged ears more effectively than mannose-6-phosphate.

[5] = experimental animals; EAE, adjuvant-induced arthritis, DTH; WO 90/01938; cited from earlier work
[6] = Table 1, t.i.d. s.c., seven days

SMILES: O=P(O)(O)OC[C@H]1OC(OCCCCCCOC2O[C@H](COP(=O)(O)O)[C@@H](O)[C@H](O)[C@@H]2O)[C@@H](O)[C@@H](O)[C@@H]1O (stereo partly drawn) [1,6-hexamethyene di(D-mannoside 6-phosphate)]
- inhibition of binding of the natural ligand, in words [1]: effective inhibitor of binding

SMILES: O=P(O)(O)OC[C@H]1OC(OCCCCCCCCCCCCCCCCOC2O[C@H](COP(=O)(O)O)[C@@H](O)[C@H](O)[C@@H]2O)[C@@H](O)[C@@H](O)[C@@H]1O (stereo partly drawn) [1,16-hexadecamethylene di(D-mannoside 6-phosphate)]
- inhibition of development of disease (EAE), in words [2]: completely inhibited the development of disease
- % with clinical signs of EAE [2, 6]: 0%
- Mean Maximum clinical score [2, 6]: 0

SMILES: CCCCCCCCCCOC1O[C@H](COP(=O)(O)O)[C@@H](O)[C@H](O)[C@@H]1O (stereo partly drawn) [decyl mannoside 6-P, Decyl D-mannoside 6-phosphate]
- inhibition of development of disease (EAE), in words [2]: completely inhibited the development of disease
- % with clinical signs of EAE [2, 6]: 0%
- Mean Maximum clinical score [2, 6]: 0
- inhibition at 220 mg/kg [3]: 70%
- % swelling [3]: 30%
- inhibition at 330 mg/kg/day [4]: 77%
- % swelling [4]: 23%

SMILES: CCCCCCCCCCCCCCCCOC1O[C@H](COP(=O)(O)O)[C@@H](O)[C@H](O)[C@@H]1O (stereo partly drawn) [hexadecyl mannoside 6-P, hexadecyl D-mannoside 6-phosphate]
- inhibition of development of disease (EAE), in words [2]: completely inhibited the development of disease
- % with clinical signs of EAE [2, 6]: 0%
- Mean Maximum clinical score [2, 6]: 0
- inhibition at 220 mg/kg [3]: 80%
- % swelling [3]: 20%

SMILES: O=P(O)(O)OC[C@H]1OC(O)[C@@H](O)[C@@H](O)[C@@H]1O (stereo partly drawn) [mannose-6-phosphate, D-mannose-6-phosphate, reference compound]
- inhibition of development of disease (EAE), in words [2]: ineffective in inhibiting development of disease symptoms
- Mean Duration ([2]; Table 1, t.i.d. s.c., seven days, 220 mg/kg/day, saline control 4.1): 4.0 days
- Mean day of onset ([2]; Table 1, t.i.d. s.c., seven days, 220 mg/kg/day, saline control 5.2): 5.2 days
- % with clinical signs of EAE [2, 6]: 100%
- Mean Maximum clinical score [2, 6]: 2.8
- effectiveness against EAE, in words ([2]; injected either subcutaneously or intraperitoneally in rats): ineffective
- inhibition at 220 mg/kg [3]: 20%
- % swelling [3]: 80%
- inhibition at 330 mg/kg/day [4]: 17%
- % swelling [4]: 83%
- anti-inflammatory activity against cell-mediated inflammatory diseases, in words [5]: shown to have anti-inflammatory activity

SMILES: CO[C@H]1O[C@H](COP(=O)(O)O)[C@@H](O)[C@H](O)[C@@H]1O [methyl mannoside 6-P, Methyl α-D-mannoside 6-phosphate]
- inhibition at 330 mg/kg/day [4]: 50%
- % swelling [4]: 50%
